In paper PMC5570892, “Indole-based perenosins as highly potent HCl transporters and potential anti-cancer agents” (Scientific Reports, 2017):
pIC50: −log10 of the molar value. Like-named read-outs stand apart in the source and are kept apart here.

Key:
MDA-MB-231 cells = assay: MTT cell viability assay; format: cell-based; settings: Homo sapiens, error from three repeats in brackets
Protocol: Herein, we carried out further in vitro studies at the University of Barcelona for the full library of perenosins. Single dose screening for cell viability using the methylthiazoletetrazolium (MTT) colorimetric assay over five different cell lines (cancer cells MCF-7, MDA-MB-231, A549 and SW620, and non-cancerous human cells MCF-10A) was conducted.
While perenosin 5, with pentyl substituent at R3, has similar cell viability effects as 1d, bis-indole perenosin 7 with pentyl substituent at R1 has a moderate degree of late onset by a factor of 7.
S11.1 Cell Lines and Culture Conditions
The human cell lines were obtained from the American Type Culture Collection (ATCC, Manassas VA). Breast adenocarcinoma MDA-MB-231 and MCF-7 cells were maintained in DMEM:F12 media (1:1; Biological Industries, Beit Haemek, Israel), and 10 µg/ml insulin and 50 µM sodium pyruvate from Sigma-Aldrich Chemical Co. (St. Louis, MO) were added to MCF-7 cells. Lung adenocarcinoma A549 and colorectal adenocarcinoma SW620 cells were cultured in DMEM media. All were supplemented with 10% foetal bovine serum (FBS; Invitrogen-Life Technologies, Carlsbad, CA) and 100 U/mL penicillin, 100 µg/mL streptomycin and 2 mM L-glutamine, all from Biological Industries.
Mammary epithelial MCF-10A cells were maintained in DMEM:F12 media supplemented with 5% horse serum (Life Technologies), 20 ng/ml EGF, 0.5 µg/ml Hydrocortisone, 100 ng/ml Cholera toxin, 10 µg/ml insulin all from Sigma-Aldrich and 100 U/ml penicillin, 100 µg/ml streptomycin, and 2 mM L- glutamine (Biological Industries). Cells were grown at 37 °C under a 5% CO2 atmosphere.
S11.2 Cell Viability Assays
Cell viability was evaluated using the methylthiazoletetrazolium (MTT) colorimetric assay. Cancer cells (MCF-7, MDA-MB-231, A549 and SW620) or non-cancerous human cells MCF-10A cells were harvested (10^4 cells/well) in 96-well plates in a final volume of 100 µl and allowed to grow overnight.
After 24 h, vehicle solution (DMSO) or experimental compounds were added at 10 µM (single point experiment) or at different ranging concentrations (0.8-100 µM) to the assay plate and were incubated for 24 or 72 h. Then, 10 µl of MTT (5 mg/ml; Sigma-Aldrich) were added and the plates were incubated for 4 h at 37°C. 100 µl of DMSO (Sigma-Aldrich) were added to dissolve crystals and the reading was taken spectrophotometrically at 570 nm using a multi-well plate reader (Multiskan FC, Thermo Scientific, Waltham, MA, USA). Cell viability and inhibitory concentration (IC) values were obtained using GraphPad Prism v5.0 (Graphpad Software, San Diego, CA, USA). All data are shown as the mean value ± standard deviation (S.D.) of three independent experiments.

[1] = 1H NMR titration chloride binding studies; settings: for Overall association constant β21 for the 2:1 host:guest complex: calculated by multiplying K 11 and K 21; for Association constant of Cl^− in the presence of HPF6 (1 equiv.), 1:1 (K a) / Association constant of Cl^− in the presence of HPF6 (1 equiv.), 2:1, K 11 / Association constant of Cl^− in the presence of HPF6 (1 equiv.), 2:1, K 21: protonated perenosin, TBA-Cl, DMSO-d6/0.5% H2O, 298 K; for Association constant of Cl^− in the presence of HPF6 (1 equiv.), 1:1 (K a): 1:1 binding model; for Association constant of Cl^− in the presence of HPF6 (1 equiv.), 2:1, K 11 / Association constant of Cl^− in the presence of HPF6 (1 equiv.), 2:1, K 21: 2:1 binding model; for partial protonation of the imine nitrogen: one mole equivalent of HPF6, DMSO-d6/0.5% H2O
Protocol: Proton NMR titrations were performed in DMSO-d 6/0.5% H2O, to assess the ability of compounds 1d and 2–8 to bind chloride, added as the tetrabutylammonium (TBA) salt, in solution. […] However, in the presence of one equivalent of HPF6, strong binding to chloride was observed through downfield shifts of the pyrrole-NH, indole-NH and the protonated imine-NH^+. All three resonances were fitted globally to the 1:1 or 2:1 (sandwich) binding models using Bindfit[48].
S8. 1H NMR Titration Binding Studies
S8.1. Equipment and Sample Preparation
1H NMR titrations were performed on a Bruker Avance AVII400 FT -NMR spectrometer with either SEF 1H/D-19F or DUL D/1H-13C, 5 mm z-gradient probes, operating at a frequency of 400 MHz for 1H NMR with the probe temperature maintained at 298 K unless otherwise stated as determined using a variable temperature unit ([…]). For all NMR titrations, a constant host concentration w as maintained (~ 5.0 mM) by using the host solution to dissolve the guest to make the guest stock solution. Over the course of the titration Hamiltonian Microlitre syringes were used to add aliquots of the guest stock solution to the NMR sample of the host solution.
The anions were added as the tetrabutylammonium (TBA) salts after being dried under high vacuum (< 1.0 mmHg) for 24 h. Stock solutions of the host ( ~ 5.0 mM) were prepared in a DMSO -d6/0.5%H2O mixture. In some titrations, protonation of the host species was achieved through the addition of 1 eq. hexafluorophosphoric acid (HPF6) to the host stock solution. The host stock solutions, with or without addition of HPF6, ( 500 μL) were transferred to an air -tight screw-cap NMR sample tube (5 mm ID) and the same host stock solution was used to prepare the standard guest titrant solution containing approximately 100 mM of the TBA-anion salts. T his ensured a constant concentration of the host (~ 5.0 mM) for the duration of the titration experiment.
S8.2. Titration Procedure
Over the course of the titration small aliquots (2 -100 μL) of the standard guest solution were added to the host solution ( ~ 500 μL) in the NMR tube. For ea ch titration 15 -20 data points were collected and at the end of the titration approximately 10 equivalents of the guest anion salt were present.
Upon each addition of the standard guest solution the samples were thoroughly shaken in the NMR tube and then allowed to equilibrate for up to 2 minutes inside the NMR probe before the spectra were taken. Throughout each titration experiment all parameters of the NMR s pectrometer […]
S8.3. Titration Data Fitting
For each 1H NMR titration, all the proton resonances were monitored for changes in chemical shift.
In the case of protonated host species at least one proton resonance was followed and for the neutral host species two or more proton resonances were followed, which allowed several data sets to use in determination of the association constant (Ka). Global fitting takes into account all data sets at the same time and this improves the quality of the nonlinear curve fitting. The supramolecular.org web applet10 was used to fit the collected titration data and allows the use of different binding models to fit the data in the best way. For compounds 1d and 2-8 firstly the 1:1 […]
cooperative or additive, was used. The quality of fit is determined by the covariance of the fit (covfit), which is calculated by dividing the (co)variance of the residual (experimental data − calculated data) with the covariance of the experimental data. A covariance of fit factor (F covfit) can be obtained by dividing the covfir from the 1:1 binding model by the covfit from the 2:1 binding model. Due to the higher number of parameters from the 2:1 binding model an improvement in the covfit (i.e. F covfit)

[2] = MDA-MB-231, 24 h exposure, read-out: IC50 (24 h)
[3] = MDA-MB-231, 72 h exposure, read-out: IC50 (72 h)

Row | SMILES | pIC50 (MDA-MB-231 cells; [2]) | pIC50 (MDA-MB-231 cells; [3]) | Overall association constant β21 for the 2:1 host:guest complex [1] [M⁻¹] | Association constant of Cl^− in the presence of HPF6 (1 equiv.), 1:1 (K a) [1] [M⁻¹] | Association constant of Cl^− in the presence of HPF6 (1 equiv.), 2:1, K 11 [1] [M⁻¹] | Association constant of Cl^− in the presence of HPF6 (1 equiv.), 2:1, K 21 [1] [M⁻¹] | partial protonation of the imine nitrogen [1]
1 | CCCCCc1cc2cc(C)cc(/N=C/c3[nH]c(C)c(CCCCC)c3C)c2[nH]1 [Perenosin 6] | < 4.00 | 5.38 | 172000 | 78300 | 1090 | 158 | –
2 | CCCCCc1cc2cc(C)cc(/N=C/c3[nH]c4ccccc4c3C)c2[nH]1 [Perenosin 8] | < 4.00 | 4.42 | 35500 | 142 | 184 | 193 | ~10%
3 | CCCCCc1c(C)[nH]c(/C=N/c2cc(C)cc3cc[nH]c23)c1C [Perenosin 5] | 4.69 | 4.85 | 4630 | 2610 | 331 | 14 | –
4 | CCCCCc1cc(/N=C/c2[nH]c3ccccc3c2C)c2[nH]ccc2c1 [Perenosin 7] | 4.13 | 4.96 | 36500 | 157 | 72 | 507 | approximately 20%
5 | CCCCCc1cc2cc(C(F)(F)F)cc(/N=C/c3[nH]c(C)cc3C)c2[nH]1 [Perenosin 3] | < 4.00 | 5.02 | 393000 | 3440 | 190 | 2070 | –
6 | CCCCCc1cc(/N=C/c2[nH]c(C)cc2C)c2[nH]ccc2c1 [Perenosin 1d] | 4.60 | 4.78 | 333000 | 605 | 1750 | 190 | –
7 | CCCc1cc2cc(C)cc(/N=C/c3[nH]c(C)cc3C)c2[nH]1 [Perenosin 4] | < 4.00 | 5.04 | 468000 | 3440 | 1530 | 306 | –
8 | CCCCCc1cc2cc(C)cc(/N=C/c3[nH]c(C)cc3C)c2[nH]1 [Perenosin 2] | < 4.00 | 4.95 | 1.18e+06 | 2450 | 2500 | 473 | –
